# US20040181075A1, “Process of making chalcone derivatives” (priority 2002, published 2004)
structure (smiles),measurement,value
"COc1cc(OC)c(-c2cc3ccccc3s2)cc1/C=C/C(=O)c1ccc(C(=O)O)cc1 [Example 3, 4-[(2E)-3-(5-benzo[b]thien-2-yl-2,4-dimethoxyphenyl)-1-oxo-2-propenyl]-benzoic acid]",melting point,231 to 232 °C (dec.)
"COc1cc(OC)c(-c2cc3ccccc3s2)cc1/C=C\C(=O)c1ccc(C(=O)O)cc1 [Example 66, 4-[(2Z)-3-(5-benzo[b]thien-2-yl-2,4-dimethoxyphenyl)-1-oxo-2-propenyl]-benzoic acid]",melting point,176 to 178 °C
